Reference: US11964953B2, “Substituted aminothiazoles as DGKzeta inhibitors for immune activation” (Bayer Aktiengesellschaft, priority 2020, dated 2024)

Target: human DGKζ (Homo sapiens (Human), UniProt Q13574)
Experiment: Human DGKζ kinase activity inhibition assay (ADP-Glo)
Format: biochemical
Details: in vitro human DGKζ kinase activity inhibition assay; read-out: IC50
Method: Human DGKζ Kinase Activity Inhibition Assay. Human diacylglycerol kinase zeta (DGKζ) inhibitory activity of compounds of the present invention was quantified employing the human DGKζ kinase activity assay as described in the following paragraphs. In essence, the enzyme activity was measured by quantification of the adenosine-di-phosphate (ADP) generated as a co-product of the enzyme reaction via the “ADP-Glo™ Kinase Assay” kit from the company Promega. This detection system works as follows: In a first step the adenosine-tri-phosphate (ATP) not consumed in the kinase reaction is quantitatively converted to cyclic adenosine-mono-phosphate (cAMP) employing an adenylate cyclase (“ADP-Glo-reagent”), then the adenylate cyclase is stopped and the ADP generated in the kinase reaction is converted to ATP, which subsequently generates in a luciferase-based reaction a glow-luminescence signal (“Kinase Detection Reagent”). C-terminally FLAG-tagged, recombinant full-length human DGKζ (in house expressed in baculovirus infected insect cells, purified using anti-Flag pulldown and size exclusion chromatography) was used as enzyme. As an alternative, commercially available enzyme by Carnabio can be used. […] Subsequently, 22.55 volumes of a 510 mM solution of octyl-β-D-glucopyranoside (Sigma-Aldrich, Cat. #O8001-10G) in 50 mM MOPS buffer (pH 7.4) were added, and the mixture was sonicated in an ultrasonic bath for 20 s. […] Viewlux™ from Perkin-Elmer). The amount of emitted light was taken as a measure for the amount of ADP generated and thereby for the activity of the DGKζ.

human DGKζ, sequence (Q13574 other isoform, or with tags, fused parts or gaps): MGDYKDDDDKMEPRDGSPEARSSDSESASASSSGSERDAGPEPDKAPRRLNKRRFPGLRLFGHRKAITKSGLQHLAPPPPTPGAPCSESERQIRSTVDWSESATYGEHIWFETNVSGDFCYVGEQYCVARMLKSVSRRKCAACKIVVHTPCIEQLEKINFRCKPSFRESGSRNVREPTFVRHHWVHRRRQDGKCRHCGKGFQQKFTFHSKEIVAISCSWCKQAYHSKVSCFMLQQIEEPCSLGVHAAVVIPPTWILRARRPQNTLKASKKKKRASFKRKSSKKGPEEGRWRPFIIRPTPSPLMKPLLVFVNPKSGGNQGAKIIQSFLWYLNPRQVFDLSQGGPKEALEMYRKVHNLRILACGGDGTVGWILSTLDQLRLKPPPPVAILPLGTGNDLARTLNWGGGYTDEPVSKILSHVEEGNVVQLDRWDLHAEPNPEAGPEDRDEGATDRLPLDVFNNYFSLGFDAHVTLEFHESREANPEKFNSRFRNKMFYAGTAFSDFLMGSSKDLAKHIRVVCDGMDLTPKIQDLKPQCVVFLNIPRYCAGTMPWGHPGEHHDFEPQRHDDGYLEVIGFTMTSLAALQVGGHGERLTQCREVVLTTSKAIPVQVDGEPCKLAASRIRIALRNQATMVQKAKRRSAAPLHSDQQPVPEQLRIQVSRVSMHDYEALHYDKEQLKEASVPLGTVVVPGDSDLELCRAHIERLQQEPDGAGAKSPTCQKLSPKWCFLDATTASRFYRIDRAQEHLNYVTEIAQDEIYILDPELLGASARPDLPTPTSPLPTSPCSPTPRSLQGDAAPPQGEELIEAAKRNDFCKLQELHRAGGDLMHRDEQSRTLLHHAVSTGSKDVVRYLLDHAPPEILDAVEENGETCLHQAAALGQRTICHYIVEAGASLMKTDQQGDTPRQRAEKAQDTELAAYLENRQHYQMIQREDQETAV

SMILES	IC50 [nM]
CC(Oc1ccc(C(=O)c2sc(N(c3ccccc3)C(C)C(N)=O)nc2N)cc1)C(N)=O (racemic) [Example 45, 2-(N-[4-amino-5-[4-[2-amino-1-methyl-2-oxo-ethoxy]benzoyl]thiazol-2-yl]anilino)propanamide]	338
CC(C(N)=O)N(c1ccc(F)cc1)c1nc(N)c(C(=O)c2ccc(OCC(=O)N3CCC[C@H]3C(N)=O)cc2)s1 (mixture of isomers) [Example 110, (2S)-1-[2-[4-[4-amino-2-(N-[2-amino-(1RS)-methyl-2-oxo-ethyl]-4-fluoro-anilino)thiazole-5-carbonyl]phenoxy]acetyl]pyrrolidine-2-carboxamide]	366
CC(C(N)=O)N(c1cnn(C)c1)c1nc(N)c(C(=O)c2ccccc2)s1 (racemic) [Example 78, rac-2-[(4-amino-5-benzoyl-thiazol-2-yl)-(1-methylpyrazol-4-yl)amino]propanamide]	7220
CC(C(N)=O)N(c1nc(N)c(C(=O)c2ccccc2)s1)c1ccc(F)cc1Cl (racemic) [Example 11, rac-2-(N-(4-amino-5-benzoyl-thiazol-2-yl)-2-chloro-4-fluoro-anilino)propanamide]	406
CC(C(N)=O)N(c1nc(N)c(C(=O)c2ccccc2)s1)c1c(F)cc(F)cc1F (racemic) [Example 4, rac-2-(N-(4-amino-5-benzoyl-thiazol-2-yl)-2,4,6-trifluoro-anilino)propanamide]	833
CC(Oc1ccc(C(=O)c2sc(N(c3ccccc3)C(C)C(N)=O)nc2N)cc1)C(N)=O (single isomer, unassigned) [Example 45.2, 2-(N-[4-amino-5-[4-[2-amino-1-methyl-2-oxo-ethoxy]benzoyl]thiazol-2-yl]anilino)propanamide]	8910
CC(C(N)=O)N(c1nc(N)c(C(=O)c2ccccc2)s1)c1ccc(OC(F)(F)F)cc1F (racemic) [Example 239, rac-2-[N-(4-amino-5-benzoyl-thiazol-2-yl)-2-fluoro-4-(trifluoromethoxy)anilino]propanamide]	236
CC(C(N)=O)N(c1ccc(C(F)F)nc1)c1nc(N)c(C(=O)c2ccccc2)s1 (racemic) [Example 231, rac-2-[(4-amino-5-benzoyl-thiazol-2-yl)-[6-(difluoromethyl)-3-pyridyl]amino]propanamide]	662
CC(C(N)=O)N(c1ccc(F)cc1)c1nc(N)c(C(=O)c2ccc(N3CCC(C)(C#N)CC3)nc2)s1 (single isomer, unassigned; enantiomer 1) [Example 285.1, 2-(N-[4-amino-5-[6-(4-cyano-4-methyl-1-piperidyl)pyridine-3-carbonyl]thiazol-2-yl]-4-fluoro-anilino)propanamide (enantiomer 1)]	34
CC(=O)N1CCN(C(=O)COc2ccc(C(=O)c3sc(N(c4ccc(F)cc4)C(C)C(N)=O)nc3N)cc2)CC1 (racemic) [Example 114, rac-2-(N-[5-[4-[2-(4-acetylpiperazin-1-yl)-2-oxo-ethoxy]benzoyl]-4-amino-thiazol-2-yl]-4-fluoro-anilino)propanamide]	658
COc1ccc(N(c2nc(N)c(C(=O)c3ccc(F)cc3)s2)C(C)C(N)=O)cc1 (racemic) [Example 18, rac-2-(N-[4-amino-5-(4-fluorobenzoyl)thiazol-2-yl]-4-methoxy-anilino)propanamide]	207
CC(C(N)=O)N(c1ccc(F)c(F)c1)c1nc(N)c(C(=O)c2ccc(OCc3ccccc3)cc2)s1 (single isomer, unassigned) [Example 165.2, 2-(N-[4-amino-5-(4-benzyloxybenzoyl)thiazol-2-yl]-3,4-difluoro-anilino)propanamide]	331

Continued, values first:

IC50 [nM]	SMILES
16	CC(C(N)=O)N(c1ccc2c(c1)OC(F)(F)O2)c1nc(N)c(C(=O)c2ccc(OC(F)F)cc2)s1 (racemic) [Example 214, rac-2-[[4-amino-5-[4-(difluoromethoxy)benzoyl]thiazol-2-yl]-(2,2-difluoro-1,3-benzodioxol-5-yl)amino]propanamide]
89.6	CC(C)NC(=O)COc1ccc(C(=O)c2sc(N(c3ccc(F)cc3)C(C)C(N)=O)nc2N)cc1 (racemic) [Example 82, rac-2-(N-[4-amino-5-[4-[2-(isopropylamino)-2-oxo-ethoxy]benzoyl]thiazol-2-yl]-4-fluoro-anilino)propanamide]
10.3	COc1ccc(C(=O)c2sc(N(c3ccc(Cl)c(F)c3)C(C)C(N)=O)nc2N)cc1 (racemic) [Example 59, rac-2-(N-[4-amino-5-(4-methoxybenzoyl)thiazol-2-yl]-4-chloro-3-fluoro-anilino)propanamide]
16.7	COc1ccc(C(=O)c2sc(N(c3ccc(Cl)cc3)C(C)C(N)=O)nc2N)cc1 (racemic) [Example 58, rac-2-(N-[4-amino-5-(4-methoxybenzoyl)thiazol-2-yl]-4-chloro-anilino)propanamide]
18	CC(C(N)=O)N(c1ccc(F)c(F)c1)c1nc(N)c(C(=O)c2ccc(O)cc2)s1 (single isomer, unassigned; enantiomer 1) [Example 287, 2-(N-[4-amino-5-(4-hydroxybenzoyl)thiazol-2-yl]-3,4-difluoro-anilino)propanamide (enantiomer 1)]
4	COc1ccc(C(=O)c2sc(N(c3ccc(Cl)c(F)c3)[C@H](C)C(N)=O)nc2N)cc1 [Example 59.1, (R)-2-(N-[4-amino-5-(4-methoxybenzoyl)thiazol-2-yl]-4-chloro-3-fluoro-anilino)propanamide]
13	CC(C(N)=O)N(c1ccc(Cl)c(F)c1)c1nc(N)c(C(=O)c2ccc(C(=O)NCCOC(F)F)cc2)s1 (racemic) [Example 270, rac-4-[4-amino-2-(N-(2-amino-1-methyl-2-oxo-ethyl)-4-chloro-3-fluoro-anilino)thiazole-5-carbonyl]-N-2-(difluoromethoxy)ethyl]benzamide]
131	CC(C(N)=O)N(c1ccc(F)cc1)c1nc(N)c(C(=O)c2ccc(OCC(=O)NCCN3CCCCC3)cc2)s1 (racemic) [Example 89, rac-2-(N-[4-amino-5-[4-[2-oxo-2-[2-(1-piperidyl)ethylamino]ethoxy]benzoyl]thiazol-2-yl]-4-fluoro-anilino)propanamide]
43	CC(C(N)=O)N(c1ccc(F)cc1)c1nc(N)c(C(=O)c2ccc(N3CC4CCC(C4)C3)nc2)s1 (racemic) [Example 280, rac-2-(N-[4-amino-5-[6-(3-azabicyclo[3.2.1]octan-3-yl)pyridine-3-carbonyl]thiazol-2-yl]-4-fluoro-anilino)propanamide]
12	CC(C(N)=O)N(c1ccc(Cl)c(F)c1)c1nc(N)c(C(=O)c2ccc(C(=O)NCCOC(F)(F)F)cc2)s1 (racemic) [Example 269, rac-4-[4-amino-2-(N-(2-amino-1-methyl-2-oxo-ethyl)-4-chloro-3-fluoro-anilino)thiazole-5-carbonyl]-N-[2-(trifluoromethoxy)ethyl]benzamide]
99.2	COc1ccc(C(=O)c2sc(N(c3ccc(F)c(F)c3)C(C)C(N)=O)nc2N)cn1 (racemic) [Example 52, rac-2-(N-[4-amino-5-(6-methoxypyridine-3-carbonyl)thiazol-2-yl]-3,4-difluoro-anilino)propanamide]
